Test: Modulation of p-gp (unknown origin) transfected in human MDA435/LCC6MDR cells assessed as reversal of paclitaxel resistance

EC50 | Compound
110 nM | COc1ccc(C2=C(c3cc(OC)c(OC)c(OC)c3)C(=O)N(CC(=O)c3ccc(OCc4ccccc4)c(OC)c3)C2=O)cc1OC
94 nM | COc1ccc(C2=C(c3ccc(OC)c(OC)c3)C(=O)N(CC(=O)c3ccc(OCc4ccccc4)c(OC)c3)C2=O)cc1OC
